pKi: −log10 of the molar value.
Columns and labels:
[1] = target: Prostaglandin E2 receptor EP2 subtype (Homo sapiens, UniProt P43116); assay: Inhibition of binding to PTGER2
Histamine H4 receptor = Histamine H4 receptor (Homo sapiens, UniProt Q9H3N8); assay: GPCRScan assay: inhibition of H4; parameters: radioligand conc. used [nm] 1.0 – 5.0, parental cells HEK T
[2] = target: Leukotriene B4 receptor 1 (Homo sapiens, UniProt Q15722); assay: Binding assay (LTB4R )
[3] = target: Serine/threonine-protein kinase 24 (Homo sapiens) (UniProt Q9Y6E0); details: Compound concentration 1000.0 nM
[4] = target: Growth hormone secretagogue receptor type 1 (Homo sapiens) (UniProt Q92847); assay: Ghrelin (h) (GHS) CEREP ligand profiling; details: Compound concentration 10.0 uM
[5] = target: Serine/threonine-protein kinase tousled-like 1 (Homo sapiens) (UniProt Q9UKI8); details: Compound concentration 1000.0 nM
Chain of Serine/threonine-protein kinase tousled-like 1 (Homo sapiens) (Q9UKI8 whole entry, canonical isoform): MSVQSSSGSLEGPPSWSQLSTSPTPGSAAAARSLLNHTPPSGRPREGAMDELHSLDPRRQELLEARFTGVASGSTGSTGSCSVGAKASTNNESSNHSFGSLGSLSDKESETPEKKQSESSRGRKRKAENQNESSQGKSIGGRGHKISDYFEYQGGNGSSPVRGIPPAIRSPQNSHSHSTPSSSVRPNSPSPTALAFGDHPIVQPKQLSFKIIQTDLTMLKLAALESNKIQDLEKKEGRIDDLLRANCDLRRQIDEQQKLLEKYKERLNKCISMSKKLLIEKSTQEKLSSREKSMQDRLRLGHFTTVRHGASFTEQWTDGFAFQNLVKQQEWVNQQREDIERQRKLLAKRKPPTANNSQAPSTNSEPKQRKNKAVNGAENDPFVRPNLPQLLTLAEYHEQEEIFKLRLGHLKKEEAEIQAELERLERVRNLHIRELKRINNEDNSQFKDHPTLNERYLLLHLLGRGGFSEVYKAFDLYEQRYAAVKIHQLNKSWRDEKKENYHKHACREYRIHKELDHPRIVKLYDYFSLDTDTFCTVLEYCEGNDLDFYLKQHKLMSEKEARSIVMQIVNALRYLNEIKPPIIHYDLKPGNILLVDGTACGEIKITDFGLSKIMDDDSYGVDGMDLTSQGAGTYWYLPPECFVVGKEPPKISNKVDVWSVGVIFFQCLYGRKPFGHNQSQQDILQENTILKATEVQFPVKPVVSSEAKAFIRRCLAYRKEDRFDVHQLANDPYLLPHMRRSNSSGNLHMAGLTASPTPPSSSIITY

[6] = test system: Phosphatidylinositol 4,5-bisphosphate 3-kinase catalytic subunit alpha isoform (Homo sapiens), P42336 [E542K]; details: Compound concentration 1000.0 nM
[7] = target: Adenosine receptor A3 (Homo sapiens) (UniProt P0DMS8); assay: A3 (h) CEREP ligand profiling; details: Compound concentration 10.0 uM
[8] = target: Sodium-dependent serotonin transporter (Homo sapiens) (UniProt P31645); assay: 5-HT transporter (h) CEREP ligand profiling; details: Compound concentration 10.0 uM
[9] = target: Dual 3',5'-cyclic-AMP and -GMP phosphodiesterase 11A (Homo sapiens) (UniProt Q9HCR9); assay: PDE11 (h) CEREP ligand profiling; details: Compound concentration 10.0 uM
[10] = Glycine (strychnine-insensitive) CEREP ligand profiling; details: Compound concentration 10.0 uM
[11] = target: cGMP-dependent protein kinase 2 (Homo sapiens) (UniProt Q13237); details: Compound concentration 1000.0 nM
[12] = target: T1, GABA-A receptor; anion channel (Homo sapiens) (UniProt P14867+P47870+P18507+P28472+P48169+Q99928+Q9UN88+P34903+O00591+O14764+Q8N1C3+P18505+P78334+P47869+P31644+Q16445); assay: Cl- channel CEREP ligand profiling; type: protein-complex assay; details: Compound concentration 10.0 uM
[13] = target: Adenosine receptor A1 (Homo sapiens) (UniProt P30542); assay: A1 (h) CEREP ligand profiling; details: Compound concentration 10.0 uM
[14] = target: Melanocortin receptor 4 (Homo sapiens) (UniProt P32245); assay: MC4 (h) CEREP ligand profiling; details: Compound concentration 10.0 uM
[15] = target: Mitogen-activated protein kinase 8 (Homo sapiens) (UniProt P45983); details: Compound concentration 1000.0 nM
[16] = test system: ALK tyrosine kinase receptor (Homo sapiens), Q9UM73 [C1156Y]; details: Compound concentration 1000.0 nM
[17] = target: Casein kinase I isoform gamma-1 (Homo sapiens) (UniProt Q9HCP0); details: Compound concentration 1000.0 nM
Chain of Casein kinase I isoform gamma-1 (Homo sapiens) (Q9HCP0 whole entry, looked up, canonical isoform): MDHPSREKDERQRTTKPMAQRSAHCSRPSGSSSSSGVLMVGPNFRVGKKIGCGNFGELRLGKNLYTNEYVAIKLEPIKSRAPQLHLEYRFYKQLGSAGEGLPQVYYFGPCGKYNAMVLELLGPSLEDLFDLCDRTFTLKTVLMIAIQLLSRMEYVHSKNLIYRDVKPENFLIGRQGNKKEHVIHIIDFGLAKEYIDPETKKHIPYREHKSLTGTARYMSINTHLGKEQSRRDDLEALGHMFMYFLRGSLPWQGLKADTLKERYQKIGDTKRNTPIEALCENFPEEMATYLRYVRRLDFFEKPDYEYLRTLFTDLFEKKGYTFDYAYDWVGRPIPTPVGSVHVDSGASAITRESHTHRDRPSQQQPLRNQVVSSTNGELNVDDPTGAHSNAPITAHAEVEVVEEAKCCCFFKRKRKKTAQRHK

[18] = target: Death-associated protein kinase 2 (Homo sapiens) (UniProt Q9UIK4); details: Compound concentration 1000.0 nM
Chain of Death-associated protein kinase 2 (Homo sapiens) (Q9UIK4 whole entry, looked up): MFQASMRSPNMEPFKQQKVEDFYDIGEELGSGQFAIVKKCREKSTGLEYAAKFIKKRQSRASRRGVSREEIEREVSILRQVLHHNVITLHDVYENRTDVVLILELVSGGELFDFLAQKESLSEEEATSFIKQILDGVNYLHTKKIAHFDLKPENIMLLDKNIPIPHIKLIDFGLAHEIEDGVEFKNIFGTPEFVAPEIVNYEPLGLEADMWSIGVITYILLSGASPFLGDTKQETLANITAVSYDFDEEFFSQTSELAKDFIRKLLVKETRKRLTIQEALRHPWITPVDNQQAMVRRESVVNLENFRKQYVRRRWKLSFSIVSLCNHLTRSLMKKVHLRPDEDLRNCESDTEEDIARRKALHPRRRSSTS

[19] = target: Mitogen-activated protein kinase 11 (Homo sapiens) (UniProt Q15759); details: Compound concentration 1000.0 nM
[20] = target: Cyclin-G-associated kinase (Homo sapiens) (UniProt O14976); details: Compound concentration 1000.0 nM
[21] = target: TRAF2 and NCK-interacting protein kinase (Homo sapiens) (UniProt Q9UKE5); details: Compound concentration 1000.0 nM
[22] = target: Tyrosine-protein kinase SYK (Homo sapiens) (UniProt P43405); details: Compound concentration 1000.0 nM
[23] = target: Tyrosine-protein kinase BTK (Homo sapiens) (UniProt Q06187); details: Compound concentration 1000.0 nM
Chain of Tyrosine-protein kinase BTK (Homo sapiens) (Q06187 whole entry): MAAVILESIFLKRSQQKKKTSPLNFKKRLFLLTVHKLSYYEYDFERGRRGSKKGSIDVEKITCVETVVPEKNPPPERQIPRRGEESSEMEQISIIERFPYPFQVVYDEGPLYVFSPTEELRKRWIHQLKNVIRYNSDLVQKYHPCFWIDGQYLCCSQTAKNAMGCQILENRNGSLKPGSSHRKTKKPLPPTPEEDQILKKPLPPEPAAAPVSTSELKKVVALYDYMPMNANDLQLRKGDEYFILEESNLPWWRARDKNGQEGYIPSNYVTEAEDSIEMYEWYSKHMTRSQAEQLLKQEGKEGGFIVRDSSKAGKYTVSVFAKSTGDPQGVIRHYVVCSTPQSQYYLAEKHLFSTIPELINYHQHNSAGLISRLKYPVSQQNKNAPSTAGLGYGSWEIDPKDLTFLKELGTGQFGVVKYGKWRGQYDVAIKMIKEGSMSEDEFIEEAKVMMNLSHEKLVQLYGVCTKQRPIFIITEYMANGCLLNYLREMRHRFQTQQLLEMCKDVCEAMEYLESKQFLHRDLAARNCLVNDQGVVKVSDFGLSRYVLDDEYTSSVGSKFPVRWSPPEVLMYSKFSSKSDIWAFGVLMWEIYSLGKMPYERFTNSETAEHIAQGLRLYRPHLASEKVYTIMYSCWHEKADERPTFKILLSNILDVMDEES

[24] = target: MAP kinase-interacting serine/threonine-protein kinase 1 (Homo sapiens) (UniProt Q9BUB5); details: Compound concentration 1000.0 nM
[25] = target: T1, GABA-A receptor; anion channel (Homo sapiens); assay: GABAA CEREP ligand profiling; type: protein-complex assay; details: Compound concentration 10.0 uM
[26] = target: Calcium/calmodulin-dependent protein kinase kinase 2 (Homo sapiens) (UniProt Q96RR4); details: Compound concentration 1000.0 nM
Chain of Calcium/calmodulin-dependent protein kinase kinase 2 (Homo sapiens) (Q96RR4 2-588 limits assumed): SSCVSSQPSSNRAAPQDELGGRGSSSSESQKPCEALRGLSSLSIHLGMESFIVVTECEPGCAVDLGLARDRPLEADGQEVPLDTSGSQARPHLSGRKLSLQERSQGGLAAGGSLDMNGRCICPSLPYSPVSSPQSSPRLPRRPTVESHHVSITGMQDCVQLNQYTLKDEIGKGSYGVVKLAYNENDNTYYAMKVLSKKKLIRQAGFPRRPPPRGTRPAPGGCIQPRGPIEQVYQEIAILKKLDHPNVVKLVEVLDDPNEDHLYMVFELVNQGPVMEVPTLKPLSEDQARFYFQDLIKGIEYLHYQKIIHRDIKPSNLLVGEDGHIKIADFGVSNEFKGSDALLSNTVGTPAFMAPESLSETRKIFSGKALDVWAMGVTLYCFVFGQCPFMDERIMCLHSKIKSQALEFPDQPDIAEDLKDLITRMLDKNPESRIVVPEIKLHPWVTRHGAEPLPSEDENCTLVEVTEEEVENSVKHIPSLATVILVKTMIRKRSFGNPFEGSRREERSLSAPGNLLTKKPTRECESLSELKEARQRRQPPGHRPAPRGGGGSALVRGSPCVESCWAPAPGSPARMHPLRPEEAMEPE

[27] = target: Calcium-activated potassium channel (Homo sapiens) (UniProt Q92952+Q9UGI6+Q12791+O15554+Q9H2S1+A8MYU2); assay: SK+Ca channel CEREP ligand profiling; type: protein assay; details: Compound concentration 10.0 uM
[28] = target: Testis-specific serine/threonine-protein kinase 3 (Homo sapiens) (UniProt Q96PN8); details: Compound concentration 1000.0 nM
[29] = target: Mitogen-activated protein kinase kinase kinase kinase 5 (Homo sapiens) (UniProt Q9Y4K4); details: Compound concentration 1000.0 nM
[30] = target: Mitogen-activated protein kinase kinase kinase 15 (Homo sapiens) (UniProt Q6ZN16); details: Compound concentration 1000.0 nM
[31] = target: Non-receptor tyrosine-protein kinase TYK2 (Homo sapiens) (UniProt P29597); details: Compound concentration 1000.0 nM
Chain of Non-receptor tyrosine-protein kinase TYK2 (Homo sapiens) (P29597 whole entry): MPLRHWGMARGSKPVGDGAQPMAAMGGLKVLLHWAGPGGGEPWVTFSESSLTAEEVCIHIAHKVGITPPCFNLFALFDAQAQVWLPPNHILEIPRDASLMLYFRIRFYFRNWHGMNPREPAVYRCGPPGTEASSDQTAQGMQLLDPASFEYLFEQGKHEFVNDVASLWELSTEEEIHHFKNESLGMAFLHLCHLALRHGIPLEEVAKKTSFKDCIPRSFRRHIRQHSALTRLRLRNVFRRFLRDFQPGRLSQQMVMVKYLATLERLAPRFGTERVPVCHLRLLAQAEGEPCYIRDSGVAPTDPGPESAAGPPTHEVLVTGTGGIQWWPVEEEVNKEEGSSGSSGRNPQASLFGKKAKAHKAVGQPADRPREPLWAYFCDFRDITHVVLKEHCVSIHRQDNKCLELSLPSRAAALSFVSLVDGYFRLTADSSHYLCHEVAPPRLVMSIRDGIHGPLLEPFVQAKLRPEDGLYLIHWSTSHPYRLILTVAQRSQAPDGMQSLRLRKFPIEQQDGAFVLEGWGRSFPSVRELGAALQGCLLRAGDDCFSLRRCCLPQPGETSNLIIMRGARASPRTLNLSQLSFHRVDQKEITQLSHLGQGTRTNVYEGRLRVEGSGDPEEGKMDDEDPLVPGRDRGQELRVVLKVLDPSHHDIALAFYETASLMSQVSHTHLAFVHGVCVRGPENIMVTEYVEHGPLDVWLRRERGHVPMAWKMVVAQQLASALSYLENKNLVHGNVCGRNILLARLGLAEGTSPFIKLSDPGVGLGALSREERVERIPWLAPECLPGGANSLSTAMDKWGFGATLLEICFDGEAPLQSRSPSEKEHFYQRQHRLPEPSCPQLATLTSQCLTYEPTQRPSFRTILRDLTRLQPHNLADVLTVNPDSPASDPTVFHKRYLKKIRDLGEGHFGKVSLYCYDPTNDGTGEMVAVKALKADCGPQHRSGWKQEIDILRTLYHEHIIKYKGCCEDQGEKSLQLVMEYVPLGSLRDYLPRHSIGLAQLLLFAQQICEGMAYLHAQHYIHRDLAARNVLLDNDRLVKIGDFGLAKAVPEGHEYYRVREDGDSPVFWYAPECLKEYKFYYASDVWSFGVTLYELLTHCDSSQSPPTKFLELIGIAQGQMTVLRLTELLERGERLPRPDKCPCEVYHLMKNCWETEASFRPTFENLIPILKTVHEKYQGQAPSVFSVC

[32] = target: Mitogen-activated protein kinase 10 (Homo sapiens) (UniProt P53779); details: Compound concentration 1000.0 nM
Chain of Mitogen-activated protein kinase 10 (Homo sapiens) (P53779 whole entry): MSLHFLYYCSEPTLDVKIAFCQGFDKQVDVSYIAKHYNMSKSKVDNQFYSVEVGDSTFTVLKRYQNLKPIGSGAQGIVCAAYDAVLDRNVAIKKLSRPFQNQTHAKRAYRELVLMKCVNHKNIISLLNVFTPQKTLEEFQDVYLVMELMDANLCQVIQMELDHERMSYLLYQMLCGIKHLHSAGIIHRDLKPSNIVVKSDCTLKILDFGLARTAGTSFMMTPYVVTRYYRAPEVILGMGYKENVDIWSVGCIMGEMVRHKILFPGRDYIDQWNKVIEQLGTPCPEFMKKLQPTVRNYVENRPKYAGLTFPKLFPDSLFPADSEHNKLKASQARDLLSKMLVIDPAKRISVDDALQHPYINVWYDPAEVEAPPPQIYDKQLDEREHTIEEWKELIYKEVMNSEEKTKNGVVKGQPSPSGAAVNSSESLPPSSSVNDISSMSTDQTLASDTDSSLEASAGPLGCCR

[33] = target: Serine/threonine-protein kinase ICK (Homo sapiens) (UniProt Q9UPZ9); details: Compound concentration 1000.0 nM
[34] = target: High affinity nerve growth factor receptor (Homo sapiens) (UniProt P04629); details: Compound concentration 1000.0 nM
[35] = target: Serine/threonine-protein kinase LATS2 (Homo sapiens) (UniProt Q9NRM7); details: Compound concentration 1000.0 nM
[36] = test system: Receptor-type tyrosine-protein kinase FLT3 (Homo sapiens), P36888 [D835H]; details: Compound concentration 1000.0 nM
[37] = target: T2, 5-hydroxytryptamine receptor 2C (Homo sapiens) (UniProt P28335); assay: 5-HT2C (h) (agonist site) CEREP ligand profiling; details: Compound concentration 10.0 uM
T2 sequence (whole entry): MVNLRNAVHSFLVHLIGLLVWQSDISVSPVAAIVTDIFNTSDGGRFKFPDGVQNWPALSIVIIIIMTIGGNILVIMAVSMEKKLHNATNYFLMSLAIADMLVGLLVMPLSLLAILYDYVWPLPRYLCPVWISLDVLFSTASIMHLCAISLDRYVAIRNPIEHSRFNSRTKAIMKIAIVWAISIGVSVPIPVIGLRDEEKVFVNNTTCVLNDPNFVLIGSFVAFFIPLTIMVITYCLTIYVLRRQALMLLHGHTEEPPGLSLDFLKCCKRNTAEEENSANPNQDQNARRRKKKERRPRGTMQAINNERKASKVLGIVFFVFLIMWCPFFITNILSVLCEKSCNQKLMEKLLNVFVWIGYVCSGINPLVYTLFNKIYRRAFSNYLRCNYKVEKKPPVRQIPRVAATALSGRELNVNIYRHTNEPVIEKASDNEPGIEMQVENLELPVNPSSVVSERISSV

[38] = target: Serine/threonine-protein kinase RIO3 (Homo sapiens) (UniProt O14730); details: Compound concentration 1000.0 nM

Chain of Histamine H4 receptor (Q9H3N8 whole entry): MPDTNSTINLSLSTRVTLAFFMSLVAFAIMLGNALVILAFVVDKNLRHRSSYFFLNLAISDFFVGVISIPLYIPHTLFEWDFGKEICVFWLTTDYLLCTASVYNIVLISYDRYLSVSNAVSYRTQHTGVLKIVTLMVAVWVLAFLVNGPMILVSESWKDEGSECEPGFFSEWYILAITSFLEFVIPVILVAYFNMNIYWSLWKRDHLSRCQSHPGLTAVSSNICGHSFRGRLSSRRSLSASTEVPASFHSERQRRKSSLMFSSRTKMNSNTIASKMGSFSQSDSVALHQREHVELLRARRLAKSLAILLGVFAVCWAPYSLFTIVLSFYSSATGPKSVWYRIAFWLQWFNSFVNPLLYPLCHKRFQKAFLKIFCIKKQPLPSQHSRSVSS

O=C(c1ccc(F)cc1)N1CC(COc2ccc(Br)cc2)(C(=O)O)C1 [PF-04475866]
IC50 [1]: 1.3 µM (not active)
pKi (Histamine H4 receptor): 5.00

COc1ccc2cc(OCC3(C(=O)O)CN(C(=O)c4ccc(F)cc4)C3)ccc2c1 [PF-04418948]
Ki [2]: 4.8 µM (not active)
residual activity [3]: 85%
inhibition [4]: -6%
residual activity [5]: 87%
residual activity [6]: 50%
inhibition [7]: -10%
inhibition [8]: -8%
inhibition [9]: 14%
inhibition [10]: 11%
residual activity [11]: 85%
inhibition [12]: 19%
inhibition [13]: -2%
inhibition [14]: 8%
residual activity [15]: 76%
residual activity [16]: 79%
residual activity [17]: 94%
residual activity [18]: 98%
residual activity [19]: 78%
residual activity [20]: 88%
residual activity [21]: 61%
residual activity [22]: 64%
residual activity [23]: 84%
residual activity [24]: 93%
inhibition [25]: 16%
residual activity [26]: 94%
inhibition [27]: -1%
residual activity [28]: 82%
residual activity [29]: 86%
residual activity [30]: 94%
residual activity [31]: 89%
residual activity [32]: 85%
residual activity [33]: 78%
residual activity [34]: 71%
residual activity [35]: 90%
residual activity [36]: 71%
inhibition [37]: -6%
residual activity [38]: 97%

Source: ChEMBL document CHEMBL4507298 (2021)
